{
  "source": "paper PMC10828444",
  "about": "“Selective inhibition of overactive warmth-sensitive Ca^2+-permeable TRPV3 channels by antispasmodic agent flopropione for alleviation of skin inflammation” (The Journal of Biological Chemistry, 2023)",
  "key": {"TRPV3-E501A mutant": {"target": "T1, TRPV3-E501A mutant (Homo sapiens, UniProt Q8NET8, E501A)", "T1 construct": "expressed in transfected cells; host or cells: HEK293", "T1 sequence (Q8NET8 1-790 E501A)": "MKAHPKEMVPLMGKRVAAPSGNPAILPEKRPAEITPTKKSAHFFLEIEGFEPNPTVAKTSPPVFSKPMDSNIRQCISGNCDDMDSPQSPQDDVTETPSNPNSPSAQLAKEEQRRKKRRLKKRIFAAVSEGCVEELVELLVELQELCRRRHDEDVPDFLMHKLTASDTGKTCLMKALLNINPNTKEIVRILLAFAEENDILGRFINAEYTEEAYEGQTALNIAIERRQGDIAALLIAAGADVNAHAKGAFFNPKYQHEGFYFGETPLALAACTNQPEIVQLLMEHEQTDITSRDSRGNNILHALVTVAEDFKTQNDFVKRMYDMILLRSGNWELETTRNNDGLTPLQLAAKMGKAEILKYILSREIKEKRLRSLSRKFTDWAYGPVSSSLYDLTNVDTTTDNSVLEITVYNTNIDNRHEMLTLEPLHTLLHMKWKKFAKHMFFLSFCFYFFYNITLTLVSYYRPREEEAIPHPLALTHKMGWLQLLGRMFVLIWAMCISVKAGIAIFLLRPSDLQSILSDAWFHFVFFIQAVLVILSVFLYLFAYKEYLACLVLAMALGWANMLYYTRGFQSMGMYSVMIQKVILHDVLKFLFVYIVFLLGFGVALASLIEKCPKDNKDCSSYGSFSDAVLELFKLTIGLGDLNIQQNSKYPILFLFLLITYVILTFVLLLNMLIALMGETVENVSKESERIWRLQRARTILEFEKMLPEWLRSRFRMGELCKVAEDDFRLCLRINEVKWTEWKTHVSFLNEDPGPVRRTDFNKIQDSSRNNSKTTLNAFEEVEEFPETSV", "assay": "Whole-cell and single-channel recordings of TRPV3-E501A mutant", "assay_type": "cell-based", "details": "100 μM flopropione whole-cell (50 μM 2-APB); 50 μM single-channel (30 μM 2-APB)", "procedure": "(§1) HEK293 cells were cultured in Dulbecco’s modified Eagle’s medium (DMEM, Gibco) containing 4.5 g/L D-glucose supplemented with 10% fetal bovine serum based at 37 °C with 5% CO2. For whole-cell patch-clamp recordings, cells were grown in glass coverslips for 24 h before transient transfections with 3000 ng cDNAs of hTRPV3 (gene accession number BC104866.1), hTRPV1 (accession number NM_080704.3), mTRPV2 (accession number NM_011706.2), hTRPV4 (accession number NM_021625.5), hTRPA1 (accession number NM_007332.3) and hTRPM8 (accession number NM_024080.5) into HEK293 cells grown in a 35-mm cell culture dish using Lipofectamine 2000 (Invitrogen). Cells were used 18 ∼ 24 h after transfection. All WT or mutant hTRPV3 plasmids were validated by DNA sequencing.\nWhole-cell patch clamp recordings of wild-type and mutants were carried out at room temperature using the HEKA EPC10 amplifier powered by PatchMaster software (HEKA) or MultiClamp 700B amplifier driven by Clampex 11.0.3 software. The borosilicate glass pipettes were pulled and fire-polished to 3∼6 MΩ using a DMZ universal electrode puller (Zeitz-Instruments, GmbH). Pipette solution and bath solution both contained (in mM): 130 NaCl, three HEPES, and 0.2 EDTA (pH = 7.4). Cell membrane potential was held at 0 mV, currents were recorded at a voltage ramp from −100 to +100 mV for 500-ms and analyzed at ±80 mV. […]"}, "hTRPV3 I505A mutant": {"target": "T2, hTRPV3 I505A mutant (Homo sapiens, UniProt Q8NET8, I505A)", "T2 construct": "expressed in transfected cells; host or cells: HEK293", "T2 sequence (Q8NET8 1-790 I505A)": "T1 sequence (Q8NET8 1-790 E501A) with A501E, I505A", "assay": "Whole-cell recordings of TRPV3 I505A mutant", "assay_type": "cell-based", "details": "100 μM flopropione, 2-APB", "procedure": "as §1\nWhole-cell patch clamp recordings of wild-type and mutants were carried out at room temperature using the HEKA EPC10 amplifier powered by PatchMaster software (HEKA) or MultiClamp 700B amplifier driven by Clampex 11.0.3 software. The borosilicate glass pipettes were pulled and fire-polished to 3∼6 MΩ using a DMZ universal electrode puller (Zeitz-Instruments, GmbH). Pipette solution and bath solution both contained (in mM): 130 NaCl, three HEPES, and 0.2 EDTA (pH = 7.4). Cell membrane potential was held at 0 mV, currents were recorded at a voltage ramp from −100 to +100 mV for 500-ms and analyzed at ±80 mV."}},
  "note": "Positions count from the first letter of the chain named.",
  "data": [
    {"smiles": "CCC(=O)c1c(O)cc(O)cc1O", "note": "[flopropione]", "values": [
      {"measurement": "effect of E501A mutation on inhibition by flopropione", "setting": "TRPV3-E501A mutant", "value": "significantly reduced TRPV3 inhibition"},
      {"measurement": "effect of I505 mutation on inhibition by flopropione", "setting": "hTRPV3 I505A mutant", "value": "partially reduced TRPV3 inhibition"}
    ]}
  ]
}
